This is an account of results in PMC3867539 (Angewandte Chemie (International ed. in English), 2013).

The target of experiment [1] is CYP71A12 (Arabidopsis thaliana, UniProt O49340). To be noted: estimate only, not a measured constant; Cys as thiol donor.
In experiment [2] the target is CYP71A13 (Arabidopsis thaliana, UniProt O49342). To be noted: estimate only, not a measured constant; Cys as thiol donor.
CYP71A13, sequence (O49342 whole entry): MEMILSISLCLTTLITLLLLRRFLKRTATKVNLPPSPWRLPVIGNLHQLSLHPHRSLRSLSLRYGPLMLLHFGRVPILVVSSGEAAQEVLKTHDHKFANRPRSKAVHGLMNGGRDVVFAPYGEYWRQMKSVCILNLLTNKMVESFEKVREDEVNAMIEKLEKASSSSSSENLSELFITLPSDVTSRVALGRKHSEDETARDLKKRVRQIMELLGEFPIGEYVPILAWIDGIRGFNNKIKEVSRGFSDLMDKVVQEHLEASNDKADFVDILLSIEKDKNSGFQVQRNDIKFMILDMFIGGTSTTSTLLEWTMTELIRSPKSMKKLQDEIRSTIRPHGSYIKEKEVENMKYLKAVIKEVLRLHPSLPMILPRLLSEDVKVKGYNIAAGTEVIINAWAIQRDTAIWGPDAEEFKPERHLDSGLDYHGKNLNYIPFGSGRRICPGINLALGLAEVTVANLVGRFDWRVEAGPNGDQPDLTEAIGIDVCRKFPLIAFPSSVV

CYP71A12, sequence (O49340 whole entry): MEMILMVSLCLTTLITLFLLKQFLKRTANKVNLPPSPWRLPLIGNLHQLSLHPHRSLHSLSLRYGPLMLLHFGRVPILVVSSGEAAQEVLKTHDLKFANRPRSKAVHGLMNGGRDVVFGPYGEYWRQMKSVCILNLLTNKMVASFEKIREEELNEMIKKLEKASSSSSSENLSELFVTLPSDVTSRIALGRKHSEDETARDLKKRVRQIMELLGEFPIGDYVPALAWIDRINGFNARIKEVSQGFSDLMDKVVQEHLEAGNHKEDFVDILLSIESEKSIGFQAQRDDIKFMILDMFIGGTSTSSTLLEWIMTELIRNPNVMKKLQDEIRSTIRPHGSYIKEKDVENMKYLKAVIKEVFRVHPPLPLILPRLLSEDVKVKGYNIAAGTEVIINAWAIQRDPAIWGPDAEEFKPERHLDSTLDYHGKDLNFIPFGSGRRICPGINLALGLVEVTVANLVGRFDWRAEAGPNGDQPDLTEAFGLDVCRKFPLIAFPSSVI

The Km is the concentration of substrate that gives half-maximal velocity. As for `N#CCc1c[nH]c2ccccc12` [IAN], the Km in experiment [1] and in experiment [2] was more than 100 µM each time.
